Reference: patent publication US8987321B2, “Lisofylline analogs and methods for use” (University of Virginia Patent Foundation, priority 2005, dated 2015)

What was measured:
[1] = Metabolic stability; type: in vitro ADME
Protocol: (§1) Further evaluations were performed for some of the LSF analogs in MDS assays, solubility, oral bioavailability, and stability (see Table 1).

[2] = biological target: rCYP 2D6 (Homo sapiens, UniProt P10635); experiment: rCYP450 inhibition, 2D6; type: in vitro ADME; design: concentration or dose not given beside the values
Protocol: (§2) Further evaluations were performed for some of the LSF analogs in MDS assays, solubility, oral bioavailability, and stability (see Table 1). Analogs having greater than 50% inhibitory activity were considered to have high activity; analogs having from 20-49% inhibitory activity were considered to have medium activity; and analogs having less than 20 inhibitory activity were considered to have low activity

[3] = biological target: rCYP 3A4 (Homo sapiens, UniProt P08684); experiment: rCYP450 inhibition, 3A4; type: in vitro ADME; design: concentration or dose not given beside the values
Protocol: as §2

[4] = biological target: rCYP 2C9 (Homo sapiens, UniProt P11712); experiment: rCYP450 inhibition, 2C9; type: in vitro ADME; design: concentration or dose not given beside the values
Protocol: as §2

[5] = biological target: rCYP 2C19 (Homo sapiens, UniProt P33261); experiment: rCYP450 inhibition, 2C19; type: in vitro ADME; design: concentration or dose not given beside the values
Protocol: as §2

[6] = biological target: T1, rCYP 1A2 (Homo sapiens, UniProt P05177); experiment: rCYP450 inhibition, 1A2; type: in vitro ADME; design: concentration or dose not given beside the values
T1 sequence (P05177 1-516): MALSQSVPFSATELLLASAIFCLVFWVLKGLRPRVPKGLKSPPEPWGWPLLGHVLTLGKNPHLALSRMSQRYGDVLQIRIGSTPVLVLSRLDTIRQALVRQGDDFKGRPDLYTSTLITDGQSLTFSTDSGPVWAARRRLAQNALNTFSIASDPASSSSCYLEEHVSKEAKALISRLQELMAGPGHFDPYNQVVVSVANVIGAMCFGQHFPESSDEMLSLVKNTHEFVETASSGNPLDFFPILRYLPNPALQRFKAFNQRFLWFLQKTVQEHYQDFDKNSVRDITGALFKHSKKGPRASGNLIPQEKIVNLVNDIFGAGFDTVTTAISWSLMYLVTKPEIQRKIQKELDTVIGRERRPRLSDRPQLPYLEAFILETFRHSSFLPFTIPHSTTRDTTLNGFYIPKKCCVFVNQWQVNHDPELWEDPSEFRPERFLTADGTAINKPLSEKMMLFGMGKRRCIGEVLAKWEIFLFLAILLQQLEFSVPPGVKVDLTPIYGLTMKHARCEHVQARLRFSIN
Protocol: as §2

[7] = test system: mouse-origin β-TC6 cells; experiment: Insulin release, pancreatic β cell lines; type: cell-based; conditions: mouse islet cell line
Protocol: (§3) The disclosed analogs (CPW1-15) were evaluated in pancreatic β cell lines for apoptosis protection after treatment with inflammatory cytokines (reflected by reduced OD450) and insulin-release (see FIGS. 5 and 6).
At the end of treatment, cells are washed with Krebs-Ringer-bicarbonate-HEPES buffer (KR13) containing in mM: 134 NaCl, 4.7 KCl, 1.2 KH2P04, 1.2 MgS04, 1.0 CaCI2, 10 HEPES, and 0.1% bovine serum albumin at 37° C., at a pH of 7.4. The cells are pre incubated in the same buffer for 30 min followed by 60-min incubation in KRB supplemented with 15 mM D-glucose (J. T. Baker, Phillisburg, N.J.). The supernatant is harvested and subjected to centrifugation to eliminate residue cells. Insulin secreted into the supernatant is measured using EIA with mouse insulin as a standard. The results are illustrated in FIGS. 9A-9P.

[8] = test system: INS-1 cells; experiment: Protection of INS-1 cells from cytokine-induced cell death; type: cell-based, rat
Protocol: The effects of LSF analogs on β-cells in the […] insulin-secreting INS-1 cell line were investigated. Cells were maintained in RPMI 1640 medium (Life Technologies, Inc., Gaithersburg, Md.) supplemented with 10% heat-inactivated FBS, 10 mm HEPES, 200 μm L-glutamine, 1 mm sodium pyruvate, […] 2-mercaptoethanol, 50 U/ml penicillin, and 50 μg/ml streptomycin at pH 7.4. The cells were cultured at 37° C. in a humidified incubator supplied with 5% carbon dioxide. Fresh medium was replaced every 2 days. The cells were plated at a density of […]. Culture vessels were coated with poly-D-lysine and gelatin (Sigma, St. Louis, Mo.) to retain detached and dead cells so that seeding cell numbers reflect the actual cell numbers after all treatment conditions. INS-1 cells were treated with the combination of recombinant mouse IL-1β (5 ng/ml), IFNγ (100 ng/ml), and TNFα (10 ng/ml; R&D Systems, Inc., Minneapolis, Minn.) suspended in complete RPMI medium. LSF (provided by Cell Therapeutics, Inc., Seattle, Wash.) and analogs were added simultaneously with the cytokines in complete RPMI medium. All treatments were performed for 18 hours.
INS-1 cells were treated with a combination of recombinant IL-1β, INFγ, and TNFα with 10^−5-10^3 μM LSF and its analogs. […] There was no further increase in β-cell protection when the LSF concentration was increased from 10^−2 to 10^2 μM. […] No further increases in β-cell protection were observed when analog concentrations were increased.
The effects of LSF analogs on insulin secretion in INS-1 cells with and without inflammatory cytokines. β-Cells were treated with apoptosis detecting dye for 2-3 hours at room temperature. Apoptotic cells were recognized with purple-red color under a microscope. After washing to eliminate free dye and adding dye release reagent, color density was quantified by reading at OD 450 nm. […] Insulin secreted into the supernatant was measured by RIA with mouse insulin as a standard. […]

[9] = Solubility; type: physicochemical; conditions: in words
Protocol: as §1

[10] = test system: human islets; experiment: Intracellular ATP concentrations (mitochondrial function) in human islets; type: cell-based; conditions: human β-cells
Protocol: (§4) Four compounds (CPW7, CPW8, CPW11, and CPW12) were also evaluated on human islets for the induction of insulin secretion, intracellular ATP concentrations and the effect of reducing cell death exposed to cytokines (combination of human IL-1β, IFN-γ, and TNF-α). The results are illustrated FIGS. 7A-7D.

[11] = test system: human islets; experiment: Cell death of human islets exposed to cytokines; type: cell-based; conditions: human β-cells
Protocol: as §4

[12] = test system: human islets; experiment: Insulin secretion in human islets exposed to cytokines; type: cell-based; conditions: human islet, in the presence of inflammatory cytokines
Protocol: as §4

[13] = test system: Caco-2; experiment: Caco-2 permeability test; type: in vitro ADME
[14] = test system: cytochrome p450; experiment: cytochrome p450 inhibition, overall statement; type: in vitro ADME
Excerpt: Analogs having greater than 50% inhibitory activity were considered to have high activity; analogs having from 20-49% inhibitory activity were considered to have medium activity; and analogs having less than 20 inhibitory activity were considered to have low activity

[15] = test system: mouse-origin β-TC6 cells; experiment: β-cell apoptosis protection after inflammatory cytokines, pancreatic β cell lines; type: cell-based; conditions: mouse islet cell line
Protocol: as §3
The β-TC6 cell line is maintained in RPMI 1640 medium (Life Technologies, Rockville, Md.) supplemented with 10% heat inactivated fetal bovine serum, 10 mM HEPES, […] L-glutamine, 50 units/ml penicillin and 50 μg/ml streptomycin at pH 7.4. The cells are cultured in a 37° C., humidified incubator supplied with 5% carbon dioxide. Fresh media is replaced every two days. Unless otherwise stated, the cells are plated at a density of 10^5/cm^2. Culture vessels (dishes and chamber slides) used for experiments were coated with poly-D-lysine and gelatin (Sigma, St. Louis, Mo.) to retain detached and dead cells so that seeding cell numbers reflect the actual cell numbers after all treatment conditions.
β-TC6 cells are treated with vehicle alone or with the combination of recombinant mouse IL-1β (5 ng/ml), IFN-γ (100 ng/ml) and TNF-α (10 ng/ml) (R&D Systems, Minneapolis, Minn.) suspended in complete RPMI medium. LSF (Cell Therapeutics, Inc. Seattle, Wash.) or the analogs are added simultaneously with the cytokines in complete RPMI medium in the concentrations ranging 1 nM-[…]. All treatments are conducted for 18 hours. The results are illustrated in FIGS. 5A-8P.

[16] = cited from earlier work
[17] = test system: INS-1 cells; experiment: Insulin secretion in INS-1 cells; type: cell-based, rat; conditions: 20 μM
Protocol: The effects of LSF analogs on insulin secretion in INS-1 cells with and without inflammatory cytokines. β-Cells were treated with apoptosis detecting dye for 2-3 hours at room temperature. Apoptotic cells were recognized with purple-red color under a microscope. After washing to eliminate free dye and adding dye release reagent, color density was quantified by reading at OD 450 nm. At the end of treatment, cells were washed with Krebs-Ringer-bicarbonate-HEPES buffer (KRB) containing 134 mm NaCl, 4.7 mm KCl, 1.2 mm KH2PO4, 1.2 mm MgSO4, 1.0 mm CaCl2, 10 mm HEPES, and 0.1% BSA at 37° C., pH 7.4. The cells were preincubated in the same buffer for 30 min, followed by 60-min incubation in KRB supplemented with 15 mM D-glucose (J. T. Baker, Phillipsburg, N.J.). The supernatant was harvested and subjected to centrifugation to eliminate residue cells. Insulin secreted into the supernatant was measured by RIA with mouse insulin as a standard. The cells are maintained in basal (3 mM) and glucose-stimulated (28 mM). […] Insulin secretion in INS-1 cells: (a) LSF, (b) compound CPW11, and (c) compound CPW12. […]

[18] = test system: non-obese diabetic (NOD) mouse; conditions: cited from earlier work
[19] = test system: β-cells; conditions: maintains insulin secretory capability and cell viability; cited from earlier work

Sequence of rCYP 2D6 (P10635 whole entry): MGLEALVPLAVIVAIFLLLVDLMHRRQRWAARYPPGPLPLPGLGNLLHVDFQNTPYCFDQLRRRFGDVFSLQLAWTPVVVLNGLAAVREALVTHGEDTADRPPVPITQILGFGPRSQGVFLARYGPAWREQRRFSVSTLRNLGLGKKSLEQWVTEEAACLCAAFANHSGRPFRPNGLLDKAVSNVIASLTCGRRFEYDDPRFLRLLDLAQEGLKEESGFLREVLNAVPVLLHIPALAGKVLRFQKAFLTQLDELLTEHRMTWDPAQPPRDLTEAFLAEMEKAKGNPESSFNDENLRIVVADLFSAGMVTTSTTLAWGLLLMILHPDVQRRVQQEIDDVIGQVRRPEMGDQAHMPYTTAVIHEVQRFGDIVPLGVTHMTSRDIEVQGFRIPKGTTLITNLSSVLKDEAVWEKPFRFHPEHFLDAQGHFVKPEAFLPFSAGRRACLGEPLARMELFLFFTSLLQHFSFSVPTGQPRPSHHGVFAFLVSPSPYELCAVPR
Sequence of rCYP 2C9 (P11712 whole entry): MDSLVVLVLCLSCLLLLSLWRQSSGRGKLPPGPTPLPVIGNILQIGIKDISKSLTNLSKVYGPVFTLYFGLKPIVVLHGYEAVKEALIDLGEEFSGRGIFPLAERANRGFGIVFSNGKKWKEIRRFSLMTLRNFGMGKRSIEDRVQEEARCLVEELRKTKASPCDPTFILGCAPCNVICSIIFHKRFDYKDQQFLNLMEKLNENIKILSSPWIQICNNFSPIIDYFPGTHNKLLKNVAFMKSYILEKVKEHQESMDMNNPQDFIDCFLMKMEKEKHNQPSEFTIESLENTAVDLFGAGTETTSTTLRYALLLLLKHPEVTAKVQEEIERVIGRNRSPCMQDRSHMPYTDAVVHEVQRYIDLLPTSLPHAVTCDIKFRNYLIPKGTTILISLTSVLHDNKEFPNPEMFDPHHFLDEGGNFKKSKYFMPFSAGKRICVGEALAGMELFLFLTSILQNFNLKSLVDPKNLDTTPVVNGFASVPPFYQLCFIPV
Sequence of rCYP 2C19 (P33261 whole entry): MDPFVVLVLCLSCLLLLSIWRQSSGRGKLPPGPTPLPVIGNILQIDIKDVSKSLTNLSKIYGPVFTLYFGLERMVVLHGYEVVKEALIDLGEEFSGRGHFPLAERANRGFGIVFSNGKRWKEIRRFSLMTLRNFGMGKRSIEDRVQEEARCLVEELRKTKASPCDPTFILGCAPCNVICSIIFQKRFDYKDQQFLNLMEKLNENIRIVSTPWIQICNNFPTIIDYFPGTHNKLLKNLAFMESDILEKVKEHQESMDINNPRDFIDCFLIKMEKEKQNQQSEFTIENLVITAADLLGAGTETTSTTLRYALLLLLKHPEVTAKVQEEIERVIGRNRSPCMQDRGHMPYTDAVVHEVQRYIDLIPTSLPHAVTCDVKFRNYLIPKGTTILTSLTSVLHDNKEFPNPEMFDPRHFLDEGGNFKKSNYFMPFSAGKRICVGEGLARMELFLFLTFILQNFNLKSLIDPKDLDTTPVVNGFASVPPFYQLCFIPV
Sequence of rCYP 3A4 (P08684 whole entry): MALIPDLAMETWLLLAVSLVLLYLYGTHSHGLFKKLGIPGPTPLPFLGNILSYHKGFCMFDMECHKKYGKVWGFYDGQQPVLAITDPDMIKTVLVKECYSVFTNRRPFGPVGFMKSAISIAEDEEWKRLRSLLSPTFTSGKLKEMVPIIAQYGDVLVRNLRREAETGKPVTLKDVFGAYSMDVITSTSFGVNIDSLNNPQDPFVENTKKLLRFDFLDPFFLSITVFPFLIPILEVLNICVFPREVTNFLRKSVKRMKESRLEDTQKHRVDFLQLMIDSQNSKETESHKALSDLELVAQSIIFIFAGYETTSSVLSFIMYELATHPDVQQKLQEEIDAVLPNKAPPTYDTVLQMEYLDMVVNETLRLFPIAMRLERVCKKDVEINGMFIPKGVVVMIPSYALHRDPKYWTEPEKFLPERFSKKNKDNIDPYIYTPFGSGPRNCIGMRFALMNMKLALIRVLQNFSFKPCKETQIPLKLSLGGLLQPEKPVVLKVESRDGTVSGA

Compound | Metabolic Stability Percent Remaining [1] [%] | rCYP % Inhibition 2D6 [2] [%] | rCYP % Inhibition 3A4 [3] [%] | rCYP % Inhibition 2C9 [4] [%] | rCYP % Inhibition 2C19 [5] [%] | rCYP % Inhibition 1A2 [6] [%] | other results
CC(=O)O[C@H](C)CCCCn1ccc2cc(Br)ccc21 [CPW1] | 0 | 80 | 57 | 86 | 99 | 58 | 
CC(O)CCCCN1C(=O)C(C)N(CCCCC(C)O)C(=O)C1C (mixture of isomers) [CPW6] | 77 | 16 | 14 | 3 | 14 | 13 | 
C[C@@H](O)CCCCn1ccc2cc(Br)ccc21 [CPW4] | 0 | 50 | 32 | 38 | 94 | 56 | 
C[C@@H](O)CCCCn1[nH]c(=O)n(-c2ccccc2)c1=O [CPW9] | 106 | 2 | −4 | −12 | 1 | 5 | 
CC(=O)O[C@H](C)CCCCn1[nH]c(=O)n(-c2ccccc2)c1=O [CPW8] | 45 | 10 | 12 | 5 | 24 | 7 | 
C[C@@H](O)CCCCOc1n[nH]c(=O)c2ccccc12 [CPW12] | 75 | 12 | 4 | 30 | 30 | 18 | insulin release [7]: positive effects; stability ([1]; in words): acceptable; β-cell protective activity compared with LSF ([8]; concentration of 10^−2 μM): comparative activity with LSF; protective effects on β-cells ([8]; cytokine-induced cell death): effective at low concentrations; solubility [9]: acceptable; maintaining mitochondrial function [10]: beneficial effect; maintaining cell viability [11]: beneficial effect; insulin secretion [12]: positive effects; Caco-2 permeability test results [13]: could be orally absorbed from the GI track; cytochrome p450 inhibition [14]: low (less than 20 inhibitory activity); β-cell protection [15]: positive effects
C[C@@H](O)CCCCOc1nn(CCCC[C@@H](C)O)c(=O)c2ccccc12 [CPW13] | 38 | −28 | −159 | 92 | 89 | 25 | 
C[C@@H]([O-])CCCCN1C(=O)COc2ccccc21.[Na+] [CPW7] |  | 8 | 12 | 5 | 12 | 12 | 
C[C@@H](O)CCCCN1c2ccccc2Oc2ccccc21 [CPW20] | 19 | 73 | 50 | 86 | 98 | 95 | 
C[C@@H](O)CCCCn1c(=O)c2c(ncn2C)n(C)c1=O [LSF, 1-(5-R-hydroxyhexyl)-3,7-dimethylxanthine] |  |  |  |  |  |  | concentration of maximum protective effect ([8]; IL-1β + IFNγ + TNFα, 18 hours): 10^−2 μM; oral bioavailability [16]: not orally bioavailable; insulin release [17]: Insulin release was observed; spontaneous Type 1 diabetes development [18]: significantly reduce; protection of β-cells from inflammatory cytokine-mediated injuries [19]: able to protect β-cells
